One data set relates to C. albicans. To be noted: cited from earlier work.
For a further data set, the system named is C. parapsilosis. Further details: method as in PMID 35456530. As to conditions: cited from earlier work.
Data set [1] deals with C. albicans, C. krusei, C. parapsilosis, and C. tropicalis. Put plainly: Anticandidal activity, statements for all strains tested. The class given is cell-based, Candida spp. To be noted: peptide 200 to 1.56 μM, 24 h, 37 °C. As to the method: (§1) The anticandidal activity was performed against the following species: C. albicans (ATCC 10231), C. krusei (ATCC 22019), C. parapsilosis (ATCC 6258), and C. tropicalis (INCQS 40042). The cell concentration was standardized by OD600 nm to achieve a concentration of 1.5 × 10^3 CFU/mL. The assays were performed using 96-well microplates, mixing the cell suspensions (100 μL) with 100 μL of each peptide serially diluted (200 to 1.56 μM, final concentrations) in 0.15 M NaCl containing 5% DMSO (dimethyl sulfoxide), which was used as a control. The plates were incubated for 24 h at 37 °C under agitation (150 rpm), and the readings were done at 600 nm using a Microtiter Plate Reader. The results are shown as the percentage of growth, considering the OD600 nm of the control as 100%.

For data set [2], the system named is L929 (murine fibroblast) cells. As to conditions: L929, 200 μM.
Protocol: Cell viability of peptide-treated fibroblast cells was tested by the MTT method. Shortly, L929 cells were trypsinized (trypsin–EDTA solution) and seeded into 96-well plates with DMEM (100 μL) at 1 × 10^5 cells/mL for 48 h, followed by the addition of the same volume of serially diluted nicotianin-I (200–1.56 μM) and negative control (0.15 M NaCl). The images were captured with the aid of an optical microscope coupled with phase contrast (AE200, Motic, Barcelona, CT, ES) under 200× magnification. Finally, 10 μL of 5 mg/mL MTT was added to each well, and the mixture was incubated at 37 °C for 3 h. Formazan was solubilized with DMSO (150 μL), and the OD570 nm was measured in a microplate reader.
In another data set the test system is C. albicans (ATCC 10231). The class given is cell-based, Candida albicans. As to conditions: ATCC 10231, 24 h. How it is done: as §1
Data set [3] relates to C. parapsilosis (ATCC 6258). The format is cell-based, Candida parapsilosis. As to conditions: ATCC 6258, 24 h. As to the method:
as §1

Another data set deals with C. krusei (ATCC 22019). The class given is cell-based, Candida krusei. To be noted: ATCC 22019, 24 h. How it is done: as §1
Data set [4] relates to C. tropicalis (INCQS 40042). The class given is cell-based, Candida tropicalis. As to conditions: INCQS 40042, 24 h. As to the method:
as §1

In data set [5] the test system is human erythrocyte (type O). As to conditions: 200 μM; 1% human erythrocytes, 1 h, 37 °C, OD414; relative to 0.1% Triton-X-100. As to the method: To assess a possible indicator of cytotoxicity, 150 μL of nicotianin-I, serially diluted with 0.15 M NaCl containing 5% DMSO, was incubated at 37 °C for 1 h with the same volume of 1% human erythrocyte (type O), which was obtained from the Hematology and Hemotherapy Center of Ceará, Brazil. Samples were centrifuged for 5 min at 2500g, and the supernatant was transferred to 96-well microplates. Released hemoglobin content was measured at OD414 nm. 0.1% Triton-X-100 and 0.15 M NaCl containing 5% DMSO were used as the positive and negative controls, respectively.

Data set [6] has as its system Zebrafish embryos (AB wild-type strain). The data set is described as follows: Fish Embryo Acute Toxicity (FET) test, OECD 236 adapted for 96-well plate. The class given is in vivo. As to the method: Zebrafish embryos (AB wild-type strain) with approximately 1 h postfertilization (hpf) were provided by the Production Unit for Alternative Model Organisms (UniPOM), Federal University of Paraiba (UFPB), João Pessoa, Brazil. A day before the experiment, zebrafish adults (male/female ratio of 2:1) were transferred to a 7 L spawning tank with a bottom mesh and a quick-opening valve for embryo collection. Embryos were collected on the day of the experiment and cultured in the adapted embryonic medium E3 (5.0 mM NaCl, 0.17 mM KCl, 0.33 mM CaCl, and 0.33 mM MgSO4) containing 0.005% methylene blue. Only spawnings with a fertilization rate ≥90% were used. Viable embryos (normal cleavage pattern and without morphological changes) were selected using an inverted light microscope (Televal 31, Zeiss, Germany) at 50× magnification. The experiments were approved by the Ethics Committee on the Use of Animals at UFPB, with authorization documented by protocol no. 4460140920.
The Fish Embryo Acute Toxicity (FET test) test was conducted according to OECD’s guideline number 236 adapted for 96-well plate, as described by Muniz et al. Zebrafish embryos with up to 3 hpf were exposed to five concentrations (6.25, 12.5, 25, 50, and 100 μg/mL) of nicotianin-I, with the last concentration being adopted as a limit concentration. Twenty wells were filled with 0.3 mL of E3 medium and 1 embryo. In the same conditions, E3 medium and 0.15 M NaCl containing 5% DMSO were used as controls.
Embryos showing lethality end points (embryo coagulation, lack of somite formation, nondetachment of the tail bud, and lack of heartbeat) were considered dead. This number was used to determine the survival rate % [number of alive organisms/total number of organisms × 100] per tested concentration. The exposures were under static conditions (without renovation of the exposure solution). Observations were performed using a stereomicroscope at a 50× magnification. After 96 h, the surviving larvae were euthanized with eugenol and properly discarded.

In another data set the test system is zebrafish embryos. As to conditions: cited from earlier work.

This is an account of results in publication PMC12120630, “Nicotianin-I: A Tobacco Floral Nectar Peptide with Anticandidal Activity” (ACS Omega, 2025).

Converted amounts (≈) assume the structure as drawn. “And” between values parts separate entries of the source, which are not always exact repeats. Equal entries are not always repeated. Residues, ends and D or L forms follow the SMILES beside them.

For `C[C@@H]1[C@H](O)[C@@H](C)/C=C/C=C/C=C/C=C/C=C/C=C/C=C/[C@H](O[C@@H]2O[C@H](C)[C@@H](O)[C@H](N)[C@@H]2O)C[C@@H]2O[C@](O)(C[C@@H](O)C[C@@H](O)[C@H](O)CC[C@@H](O)C[C@@H](O)CC(=O)O[C@H]1C)C[C@H](O)[C@H]2C(=O)O` [Amphotericin B], the MIC in the data set with C. albicans and in the data set on C. parapsilosis was 0.25 µg/mL (≈ 0.271 µM) throughout.
For the compound `CC(C)[C@H](N)C(=O)N[C@@H](CS)C(=O)N1CCC[C@H]1C(=O)N[C@@H](CS)C(=O)N[C@@H](C)C(=O)N[C@@H](CS)C(=O)N[C@@H](CS)C(=O)N[C@@H](CO)C(=O)N[C@H](C(=O)N1CCC[C@H]1C(=O)N[C@@H](CCCNC(=N)N)C(=O)N[C@@H](CCCNC(=N)N)C(=O)N[C@H](C(=O)O)C(C)C)[C@@H](C)O` [Pep1] (H-VCPCACCSTPRRV-OH; N-terminus and C-terminus assumed), in [1], the “in vitro antifungal activity (growth inhibition), in words” value is “negligible or no significant inhibition”. Further, the “reduction of cellular viability (up to)” value in data set [2] (MTT, OD570) is given as 80.95%.
In the data set on C. albicans (ATCC 10231), `CC(C)C[C@H](NC(=O)[C@H](CS)NC(=O)[C@H](Cc1ccc(O)cc1)NC(=O)CNC(=O)[C@H](Cc1c[nH]cn1)NC(=O)[C@H](CCCNC(=N)N)NC(=O)[C@@H](NC(=O)[C@H](CS)NC(=O)[C@H](CO)NC(=O)[C@H](Cc1ccc(O)cc1)NC(=O)[C@H](Cc1c[nH]cn1)NC(=O)[C@@H](N)CCCCN)[C@@H](C)O)C(=O)N[C@@H](C)C(=O)N[C@@H](CS)C(=O)N[C@@H](Cc1ccc(O)cc1)C(=O)N[C@@H](CCCCN)C(=O)N[C@@H](CCCNC(=N)N)C(=O)N[C@@H](Cc1c[nH]c2ccccc12)C(=O)N[C@@H](Cc1ccccc1)C(=O)O` [nicotianin-I] (H-KHYSCTRHGYCLACYKRWF-OH) returned an IC50 of 80 ± 4.6 µM and an MIC of 120 ± 9.3 µM (≈ 291 µg/mL). In data set [3], this compound yielded an IC50 of 46 ± 2.2 µM and an MIC of 141 ± 7.1 µM (≈ 342 µg/mL). The “cytotoxicity to fibroblasts, in words” value in [2] (MTT and phase contrast microscopy) is recorded as “no cytotoxicity”. In the data set with C. krusei (ATCC 22019), this compound returned an IC50 of 57 ± 3.7 µM and an MIC of 133 ± 8.6 µM (≈ 322 µg/mL). In data set [4], this compound came in with an IC50 of 24 ± 1.9 µM and an MIC of 86 ± 3.6 µM (≈ 208 µg/mL). Further, in data set [5], the “maximum percentage of hemolysis” value is on record as 28.1%. In data set [6] (50 μg/mL (21 μM), 96 h exposure, static, 20 embryos per concentration), the survival rate is on record as 90%. The same compound returned a mortality rate in data set [6] (100 μg/mL or 42 μM (highest concentration), as stated in the abstract) of 40%. In data set [6] (6.25–100 μg/mL, 96 h), the blood clotting result was “n.e. (n.e.: no effect or less than 20% of embryos affected)”, the body pigmentation result is recorded as “n.e. (n.e.: no effect or less than 20% of embryos affected)”, the eye malformation entry is on record as “n.e. ^b (n.e.: no effect or less than 20% of embryos affected)” and the “granules around the embryo (LOAEL)” value is 100 µg/mL. Further, in [6] (6.25–100 μg/mL, 96 h), the “hatching delay (LOAEL)” value turned out to be 100 µg/mL, the mouth malformation entry is recorded as “n.e. (n.e.: no effect or less than 20% of embryos affected)”, the otolith malformation result was “n.e. (n.e.: no effect or less than 20% of embryos affected)” and the pericardial edema entry is given as “n.e”. Also, in data set [6] (6.25–100 μg/mL, 96 h), the spine malformation entry was “n.e. (n.e.: no effect or less than 20% of embryos affected)”, the undersize entry is recorded as “n.e. (n.e.: no effect or less than 20% of embryos affected)” and the yolk sac edema result is listed as “n.e. (n.e.: no effect or less than 20% of embryos affected)”. In data set [6] (nonlethal effects: hatching delay, granules around the embryo), the “lowest observed adverse effect level (LOAEL)” value was 100 µg/mL. Further, in data set [6] (zebrafish embryos, 96 h exposure), the “LC50 (mortality)” value was 131 µg/mL and 131.85 µg/mL. The compound further gave an LC50 in data set [6] (zebrafish embryos, 96 h exposure, same value given in μM) of 54 µM.
Consider `C[C@@H]1[C@H](O)[C@@H](C)/C=C/C=C/CC/C=C/C=C/C=C/C=C/C(O[C@H]2O[C@H](C)[C@@H](O)[C@H](N)[C@@H]2O)CC2O[C@](O)(CC(O)C(O)CCC(O)CC(O)CC(O)CC(=O)O[C@H]1C)CC(O)C2C(=O)O` (some centres unmarked) [nystatin], for which the MIC with C. albicans and with C. parapsilosis was 1 µg/mL (≈ 1.08 µM) each time. In the data set with zebrafish embryos (zebrafish embryos at 120 h postfertilization), the LC50 is 6.2 µg/mL (≈ 6.69 µM). Besides, the “exposure concentration causing cardiac abnormalities (pericardial edema, reduced heartbeat)” value in the data set on zebrafish embryos (zebrafish embryos, Nys 3 × MIC, AmB 3.2 × MIC) is 3 µg/mL.
For the compound “EYCSAKSAKPGVHCRSCALVNMYK [Pep2, ornamental tobacco floral nectar peptide […]]”, in data set [1], the “in vitro antifungal activity (growth inhibition), in words” value is reported as “negligible or no significant inhibition”.
Turning to “HRFSYMCFVAQVLNKDYCSCCKF [Pep5, ornamental tobacco floral nectar peptide […]]”, the “in vitro antifungal activity (growth inhibition), in words” value in data set [1] was “negligible or no significant inhibition”.
In the case of “LHSGEGSTCYFFKTNPCCCGTWNCT [Pep3, ornamental tobacco floral nectar peptide […]]”, the “in vitro antifungal activity (growth inhibition), in words” value in data set [1] is recorded as “negligible or no significant inhibition”.
“WKCGSTPAPRKYCTCVAKMW [Pep4, ornamental tobacco floral nectar peptide […]]”: the “in vitro antifungal activity (growth inhibition), in words” value in [1] is “negligible or no significant inhibition”.

One may read the MIC as the smallest concentration in the dilution series that meets the test's criterion for growth inhibition. As a reminder, the IC50 is the concentration at which inhibition is half-maximal. Usually LC50 stands for the concentration lethal to half of the exposed cells or organisms.
